Experimental data taken from patent publication US12545673B2, “Imidazopyridine derivative and pharmaceutical composition comprising same as active ingredient” (TSD LIFE SCIENCES CO., LTD., priority 2019, dated 2026).
Read-outs that look alike come from different tables or passages of the source.

Legend:
influenza virus PR8 = experiment: microbe, parasite or virus in culture; format: cell-based; details: for EC50: unidentified influenza virus, PR8, MDCK, read-out: Antiviral activity (EC50, μM) PR8
[1] = system: chronic myeloid leukemia cell line K562; experiment: Cancer cell proliferation inhibitory activity evaluation 1 (CCK-8), K562; format: cell-based; details: Homo sapiens, K562; 10 μM, 72 hours, CCK-8; read-out: Cancer cell proliferation inhibitory activity K562
[2] = system: acute myeloid leukemia cell line U937; experiment: Cancer cell proliferation inhibitory activity evaluation 1 (CCK-8), U937; format: cell-based; details: Homo sapiens, U-937; 10 μM, 72 hours, CCK-8 (Table 2); read-out: Cancer cell proliferation inhibitory activity U937
[3] = system: gastric cancer cell line AGS; experiment: Cancer cell proliferation inhibitory activity evaluation 2 (CCK-8), AGS; format: cell-based; details: Homo sapiens, read-out: Cancer cell proliferation inhibitory activity AGS
influenza virus LE = experiment: microbe, parasite or virus in culture; format: cell-based; details: for EC50: unidentified influenza virus, MDCK, read-out: Antiviral activity (EC50, μM) LE
influenza virus HK = experiment: microbe, parasite or virus in culture; format: cell-based; details: for EC50: unidentified influenza virus, MDCK, read-out: Antiviral activity (EC50, μM) HK
[4] = system: acute lymphoblastic leukemia cell line Jurkat; experiment: Cancer cell proliferation inhibitory activity evaluation 2 (CCK-8), Jurkat; format: cell-based; details: Homo sapiens
[5] = system: colorectal cancer cell line HT-29; experiment: Cancer cell proliferation inhibitory activity evaluation 1 (CCK-8), HT-29; format: cell-based; details: Homo sapiens, HT-29; 10 μM, 72 hours, CCK-8; read-out: Cancer cell proliferation inhibitory activity HT29
in vitro = details: dog
[6] = system: human breast cancer cell line MDA-MB-231; experiment: Cancer cell proliferation inhibitory activity evaluation 1 (CCK-8), MDA-MB-231; format: cell-based; details: MDA-MB-231, 10 μM, 72 hours, CCK-8, read-out: Cancer cell proliferation inhibitory activity MDAMB231
[7] = system: acute myeloid leukemia cell line U937; experiment: Cancer cell proliferation inhibitory activity evaluation 2 (CCK-8), U937; format: cell-based; details: Homo sapiens, read-out: Cancer cell proliferation inhibitory activity U937
TGF-β1 = experiment: Fibrosis inhibition evaluation 2, palmitic acid-induced HepG2, real-time PCR, TGF-β1
α-SMA = experiment: Fibrosis inhibition evaluation 2, palmitic acid-induced HepG2, real-time PCR, α-SMA; details: palmitic acid-induced HepG2 (Table 8)
MLK2 = MLK2 (Homo sapiens (Human), UniProt Q02779); experiment: Evaluation of inhibitory activity of enzyme units, MLK2 ([γ-33P]-ATP filter assay); format: biochemical
Fibronectin-1 = experiment: Fibrosis inhibition evaluation 2, palmitic acid-induced HepG2, real-time PCR, Fibronectin-1
MLK3 = MLK3 (Homo sapiens (Human), UniProt Q16584); experiment: Evaluation of inhibitory activity of enzyme units, MLK3 ([γ-33P]-ATP filter assay)
MLK1 = MLK1 (Homo sapiens (Human), UniProt P80192); experiment: Evaluation of inhibitory activity of enzyme units, MLK1 ([γ-33P]-ATP filter assay); format: biochemical
LRRK2 mutant (G2019S) = LRRK2 mutant (G2019S) (Homo sapiens (Human), UniProt Q5S007, G2019S); experiment: Evaluation of inhibitory activity against LRRK2 (affinity bead competition binding), G2019S mutant; details: read-out: Residual active values (%) LRRK2(G2019S)
Method in brief: (§1)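 Competition binding against immobilized biotinylated ligand for DNA-tagged wild-type or G2019S LRRK2, produced from T7 phage-infected E. coli (MOI 0.4, 32° C.) lysate then HEK293 cells. Beads blocked and washed in SeaBlock buffer (1% BSA, 0.05% Tween 20, 1 mM DTT); compounds prepared as 40× stocks in 100% DMSO.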

LRRK2 wild-type = LRRK2 wild-type (Homo sapiens (Human), UniProt Q5S007); experiment: Evaluation of inhibitory activity against LRRK2 (affinity bead competition binding), wild-type; details: read-out: Residual active values (%) LRRK2
Method in brief: as §1

[8] = 10 μM, 72 hours, CCK-8, read-out: Cancer cell proliferation inhibitory activity Jurkat
[9] = U-937, 10 μM, 72 hours, CCK-8 (Table 3)
[10] = 72 h, read-out: Cancer cell proliferation inhibitory activity Jurkat

Chain of MLK3 (Q16584 whole entry, looked up): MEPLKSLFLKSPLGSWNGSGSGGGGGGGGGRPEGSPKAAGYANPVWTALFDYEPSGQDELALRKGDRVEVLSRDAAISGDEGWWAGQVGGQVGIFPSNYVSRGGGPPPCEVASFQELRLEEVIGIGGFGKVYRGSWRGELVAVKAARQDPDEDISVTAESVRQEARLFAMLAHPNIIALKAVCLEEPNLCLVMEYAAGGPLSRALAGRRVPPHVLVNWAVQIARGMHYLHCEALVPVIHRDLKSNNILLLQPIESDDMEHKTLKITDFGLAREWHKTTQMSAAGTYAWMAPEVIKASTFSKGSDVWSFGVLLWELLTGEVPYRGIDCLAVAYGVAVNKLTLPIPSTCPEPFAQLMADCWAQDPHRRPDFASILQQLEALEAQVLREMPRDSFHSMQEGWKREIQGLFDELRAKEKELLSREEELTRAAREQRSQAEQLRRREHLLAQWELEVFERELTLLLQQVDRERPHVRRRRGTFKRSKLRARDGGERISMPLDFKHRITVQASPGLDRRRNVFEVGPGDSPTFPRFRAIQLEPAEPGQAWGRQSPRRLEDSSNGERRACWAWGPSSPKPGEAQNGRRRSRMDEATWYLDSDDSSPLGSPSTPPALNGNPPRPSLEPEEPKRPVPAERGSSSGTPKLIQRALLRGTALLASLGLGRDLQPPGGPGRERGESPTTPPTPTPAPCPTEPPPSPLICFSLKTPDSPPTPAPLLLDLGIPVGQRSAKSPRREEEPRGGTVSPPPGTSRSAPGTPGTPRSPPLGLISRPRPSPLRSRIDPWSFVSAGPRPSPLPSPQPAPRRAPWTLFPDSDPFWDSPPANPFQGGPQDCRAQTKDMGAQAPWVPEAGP
Chain of LRRK2 wild-type (Q5S007 whole entry, looked up): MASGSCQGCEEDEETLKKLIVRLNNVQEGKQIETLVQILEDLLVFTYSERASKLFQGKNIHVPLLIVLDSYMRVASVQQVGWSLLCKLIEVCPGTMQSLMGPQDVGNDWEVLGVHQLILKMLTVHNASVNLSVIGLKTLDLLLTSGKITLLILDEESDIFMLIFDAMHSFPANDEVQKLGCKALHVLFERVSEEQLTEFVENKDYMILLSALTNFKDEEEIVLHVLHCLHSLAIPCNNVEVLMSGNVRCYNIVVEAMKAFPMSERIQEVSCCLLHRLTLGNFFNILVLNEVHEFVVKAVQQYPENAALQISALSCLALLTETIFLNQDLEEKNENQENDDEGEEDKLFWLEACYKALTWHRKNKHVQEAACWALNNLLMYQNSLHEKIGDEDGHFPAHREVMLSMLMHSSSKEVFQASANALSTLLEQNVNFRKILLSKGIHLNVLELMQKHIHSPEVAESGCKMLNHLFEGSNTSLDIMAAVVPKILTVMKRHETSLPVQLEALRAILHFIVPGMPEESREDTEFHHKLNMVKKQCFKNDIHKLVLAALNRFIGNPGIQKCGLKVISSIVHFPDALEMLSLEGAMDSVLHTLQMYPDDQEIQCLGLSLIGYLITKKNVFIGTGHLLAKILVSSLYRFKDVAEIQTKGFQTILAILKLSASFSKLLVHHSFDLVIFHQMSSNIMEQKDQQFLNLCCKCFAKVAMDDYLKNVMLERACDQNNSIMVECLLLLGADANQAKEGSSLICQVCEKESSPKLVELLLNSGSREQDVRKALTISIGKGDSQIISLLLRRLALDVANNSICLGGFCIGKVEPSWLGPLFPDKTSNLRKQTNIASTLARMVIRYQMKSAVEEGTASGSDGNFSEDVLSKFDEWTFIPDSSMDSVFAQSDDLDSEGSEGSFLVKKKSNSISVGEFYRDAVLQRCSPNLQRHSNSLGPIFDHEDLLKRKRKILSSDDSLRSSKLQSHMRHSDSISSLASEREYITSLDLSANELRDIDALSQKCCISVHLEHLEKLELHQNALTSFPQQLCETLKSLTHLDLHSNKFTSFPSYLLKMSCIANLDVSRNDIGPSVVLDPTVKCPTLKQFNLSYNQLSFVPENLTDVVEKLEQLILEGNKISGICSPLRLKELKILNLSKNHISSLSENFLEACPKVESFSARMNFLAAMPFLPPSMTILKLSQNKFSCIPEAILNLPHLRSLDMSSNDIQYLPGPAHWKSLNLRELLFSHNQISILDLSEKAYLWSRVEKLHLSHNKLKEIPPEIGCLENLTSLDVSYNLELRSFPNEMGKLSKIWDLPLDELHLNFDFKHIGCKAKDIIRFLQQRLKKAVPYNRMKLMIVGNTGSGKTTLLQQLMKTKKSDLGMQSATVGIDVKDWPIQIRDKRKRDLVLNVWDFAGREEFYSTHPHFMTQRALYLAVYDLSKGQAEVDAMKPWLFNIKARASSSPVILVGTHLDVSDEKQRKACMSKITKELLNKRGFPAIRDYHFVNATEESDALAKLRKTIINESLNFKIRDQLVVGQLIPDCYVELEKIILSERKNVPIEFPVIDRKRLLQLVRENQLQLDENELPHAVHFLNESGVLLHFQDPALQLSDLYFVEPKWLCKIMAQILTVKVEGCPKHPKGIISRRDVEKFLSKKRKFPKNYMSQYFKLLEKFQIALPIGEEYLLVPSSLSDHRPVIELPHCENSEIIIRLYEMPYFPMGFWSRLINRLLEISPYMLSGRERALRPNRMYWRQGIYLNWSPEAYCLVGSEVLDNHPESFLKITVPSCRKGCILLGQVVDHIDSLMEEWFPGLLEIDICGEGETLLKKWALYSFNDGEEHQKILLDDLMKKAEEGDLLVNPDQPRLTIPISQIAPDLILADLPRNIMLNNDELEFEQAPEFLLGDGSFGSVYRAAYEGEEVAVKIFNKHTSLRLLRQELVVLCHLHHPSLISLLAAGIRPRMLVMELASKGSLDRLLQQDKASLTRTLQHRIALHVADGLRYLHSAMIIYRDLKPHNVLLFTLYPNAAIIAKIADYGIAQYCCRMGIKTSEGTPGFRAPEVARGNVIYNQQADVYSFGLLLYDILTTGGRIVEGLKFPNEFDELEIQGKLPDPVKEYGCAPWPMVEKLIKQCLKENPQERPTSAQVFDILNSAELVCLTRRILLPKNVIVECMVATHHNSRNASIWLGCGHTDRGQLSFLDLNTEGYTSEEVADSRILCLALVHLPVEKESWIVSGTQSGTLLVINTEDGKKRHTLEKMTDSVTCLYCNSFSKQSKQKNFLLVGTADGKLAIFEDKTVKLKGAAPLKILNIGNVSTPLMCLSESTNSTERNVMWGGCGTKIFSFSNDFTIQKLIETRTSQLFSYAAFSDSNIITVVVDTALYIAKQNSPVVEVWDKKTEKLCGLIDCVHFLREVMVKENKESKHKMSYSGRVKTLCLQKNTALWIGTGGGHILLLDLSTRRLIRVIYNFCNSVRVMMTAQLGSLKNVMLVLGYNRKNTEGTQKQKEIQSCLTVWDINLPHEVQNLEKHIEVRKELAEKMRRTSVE
Chain of MLK1 (P80192 whole entry, looked up): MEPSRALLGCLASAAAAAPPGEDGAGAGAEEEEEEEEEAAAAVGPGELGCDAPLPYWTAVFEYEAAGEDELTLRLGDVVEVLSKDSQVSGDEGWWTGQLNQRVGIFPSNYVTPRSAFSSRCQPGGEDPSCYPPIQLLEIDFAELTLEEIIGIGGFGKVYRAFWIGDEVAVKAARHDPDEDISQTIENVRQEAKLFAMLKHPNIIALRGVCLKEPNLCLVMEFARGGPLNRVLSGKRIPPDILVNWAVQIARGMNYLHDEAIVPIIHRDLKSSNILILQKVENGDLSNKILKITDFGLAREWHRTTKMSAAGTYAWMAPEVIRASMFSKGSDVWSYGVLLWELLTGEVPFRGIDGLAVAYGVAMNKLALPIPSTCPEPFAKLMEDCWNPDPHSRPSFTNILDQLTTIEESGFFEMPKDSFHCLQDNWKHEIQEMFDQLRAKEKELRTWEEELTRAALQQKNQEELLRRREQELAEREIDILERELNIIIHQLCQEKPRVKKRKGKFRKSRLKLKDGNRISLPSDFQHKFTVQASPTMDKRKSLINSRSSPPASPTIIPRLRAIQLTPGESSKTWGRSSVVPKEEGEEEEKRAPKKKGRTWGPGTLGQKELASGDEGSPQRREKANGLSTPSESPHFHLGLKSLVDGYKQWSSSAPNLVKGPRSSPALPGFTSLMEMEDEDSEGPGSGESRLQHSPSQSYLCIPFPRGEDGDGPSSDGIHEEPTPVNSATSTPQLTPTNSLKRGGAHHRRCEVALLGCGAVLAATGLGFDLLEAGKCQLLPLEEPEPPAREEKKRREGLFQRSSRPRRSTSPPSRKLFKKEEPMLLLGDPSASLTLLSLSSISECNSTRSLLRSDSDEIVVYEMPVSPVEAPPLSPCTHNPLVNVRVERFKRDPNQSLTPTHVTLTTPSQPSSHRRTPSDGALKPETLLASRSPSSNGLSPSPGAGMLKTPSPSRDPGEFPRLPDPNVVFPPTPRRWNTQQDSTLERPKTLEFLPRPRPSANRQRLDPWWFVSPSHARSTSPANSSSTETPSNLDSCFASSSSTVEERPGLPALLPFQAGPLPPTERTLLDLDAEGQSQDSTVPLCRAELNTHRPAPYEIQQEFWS
Chain of LRRK2 mutant (G2019S) (Q5S007 whole entry G2019S, looked up): as the sequence (Q5S007 whole entry, looked up) above, with G2019S counted along it

Row | Structure (SMILES) | EC50 (influenza virus PR8) [µM] | inhibition at 10 µM ([3]; 10 μM, 72 hours, CCK-8) [%] | EC50 (influenza virus LE) [µM] | Selectivity index: CC50/EC50 HK (influenza virus HK) | EC50 (influenza virus HK) [µM] | inhibition at 10 µM [4, 8] [%] | CC50 at 3 days (in vitro) [µM] | inhibition at 10 µM [7, 9] [%] | inhibition at 10 µM ([3]; 72 h) [%] | IC50 (MLK2) [nM] | IC50 (MLK3; read-out: IC50(nM) MLK3) [nM] | IC50 (MLK1) [nM] | inhibition at 10 µM [4, 10] [%] | inhibition at 10 µM ([7]; U-937, 72 h) [%] | also measured
1 | CCS(=O)(=O)N1CC[C@H](Nc2c(Br)cnc3nc(-c4cc(C)n(-c5ccc(OCCN6CCOCC6)cc5)c4C)[nH]c23)C1 [Example 4, (S)-6-bromo-2-(2,5-dimethyl-1-(4-(2-morpholinoethoxy)phenyl)-1H-pyrrol-3-yl)-N-(1-(ethylsulfonyl)pyrrolidine-3-yl)-1H-imidazo[4,5-b]pyridine-7-amine] | 11.1 | > 50 | 9.9 | >10.2 | 9.8 | > 50 | > 100 | > 50 | – | – | – | – | – | – | inhibition at 10 µM [1]: > 50%; inhibition at 10 µM [2]: > 50%; Selectivity index: CC50/EC50 LE (influenza virus LE): >10.1; inhibition at 10 µM [5]: > 50%; inhibition at 10 µM [6]: 10 to 50%
2 | CCS(=O)(=O)N1CC[C@H](Nc2c(Br)cnc3nc(-c4cc(C)n(-c5cccc(NS(C)(=O)=O)c5)c4C)[nH]c23)C1 [Example 12, (S)—N-(3-(3-(6-bromo-7-((1-(ethylsulfonyl)pyrrolidine-3-yl)amino)-1H-imidazo[4,5-b]pyridine-2-yl)-2,5-dimethyl-1H-pyrrol-1-yl)phenyl) methanesulfonamide] | 100 | – | > 100 | >3.7 | 27 | – | > 100 | – | > 50 | 65 | 7 | 52 | 10 to 50 | 10 to 50 | Relative degree of expression inhibition (%) TGF-β1 (TGF-β1): 113.03%; Relative degree of expression inhibition (%) α-SMA (α-SMA): 49.92%; Relative degree of expression inhibition (%) Fibronectin-1 (Fibronectin-1): 74.32%; remaining binding at 0.1 µM (LRRK2 mutant (G2019S); 100 nM): 3.6%; remaining binding at 0.5 µM (LRRK2 mutant (G2019S); 500 nM): 0.5%; remaining binding at 0.1 µM (LRRK2 wild-type; 100 nM): 16%; remaining binding at 0.5 µM (LRRK2 wild-type; 500 nM): 3.7%
3 | CCS(=O)(=O)N1CC[C@H](Nc2c(Br)cnc3[nH]c(-c4cc(C)n(-c5cc(S(N)(=O)=O)ccc5Cl)c4C)nc23)C1 [Example 17, 3-(3-(6-bromo-7-(((S)-1-(ethylsulfonyl)pyrrolidine-3-yl)amino)-3H-imidazo[4,5-b]pyridine-2-yl)-2,5-dimethyl-1H-pyrrol-1-yl)-4-chlorobenzenesulfonamide] | 92.9 | > 50 | > 100 | >9.3 | 10.8 | > 50 | > 100 | 10 to 50 | – | – | – | – | – | – | Selectivity index: CC50/EC50 PR8 (influenza virus PR8): >1.1; IC50 (MLK3): 12 nM
4 | CCS(=O)(=O)N1CC[C@H](Nc2c(Br)cnc3nc(-c4cc(C)n(-c5cccc(S(N)(=O)=O)c5)c4C)[nH]c23)C1 [Example 23, (S)-3-(3-(6-bromo-7-((1-(ethylsulfonyl)pyrrolidine-3-yl)amino)-1H-imidazo[4,5-b]pyridine-2-yl)-2,5-dimethyl-1H-pyrrol-1-yl)benzenesulfonamide] | > 100 | – | > 100 | >3.2 | 31.6 | – | > 100 | – | 10 to 50 | 56 | 17 | 25 | > 50 | 10 to 50 | –
